Source: PubChem BioAssay (NCI)
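Five concentrations, 48 hours, 96-well plates. GI50 = concentration required for 50% inhibition of growth. TGI marks complete inhibition of growth.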

What was measured:
Experiment in all cases: inhibition of tumour cell growth, NCI panel, 48 h; in the data active = GI50 below about 0.43 µM; inactive = the rest
KM12 colon = system: KM12 colon
UO-31 renal = system: UO-31 renal
U251 CNS = system: U251 CNS
LOX IMVI melanoma = system: LOX IMVI melanoma
NCI-H226 lung = system: NCI-H226 lung
MDA-MB-435 = system: MDA-MB-435
M14 melanoma = system: M14 melanoma
OVCAR-4 ovarian = system: OVCAR-4 ovarian
NCI-H23 lung = system: NCI-H23 lung
HCT-15 colon = system: HCT-15 colon
SW-620 colon = system: SW-620 colon
IGROV1 ovarian = system: IGROV1 ovarian
SK-OV-3 ovarian = system: SK-OV-3 ovarian
UACC-257 melanoma = system: UACC-257 melanoma
UACC-62 melanoma = system: UACC-62 melanoma
RPMI-8226 leukemia = system: RPMI-8226 leukemia
A549 NSCLC = system: A549 NSCLC
PC-3 prostate = system: PC-3 prostate
K-562 leukemia = system: K-562 leukemia
NCI-H460 lung = system: NCI-H460 lung
NCI/ADR-RES ovarian = system: NCI/ADR-RES ovarian
COLO 205 colon = system: COLO 205 colon
SK-MEL-2 melanoma = system: SK-MEL-2 melanoma
HCC-2998 colon = system: HCC-2998 colon
OVCAR-8 ovarian = system: OVCAR-8 ovarian
HS 578T breast = system: HS 578T breast
CCRF-CEM leukemia = system: CCRF-CEM leukemia
HT29 colon = system: HT29 colon
BT-549 breast = system: BT-549 breast
MDA-MB-231 breast = system: MDA-MB-231 breast
MOLT-4 leukemia = system: MOLT-4 leukemia
OVCAR-3 ovarian = system: OVCAR-3 ovarian
SF-268 CNS = system: SF-268 CNS
SN12C renal = system: SN12C renal
DU-145 prostate = system: DU-145 prostate
T-47D breast = system: T-47D breast
MALME-3M melanoma = system: MALME-3M melanoma
SF-539 CNS = system: SF-539 CNS
HOP-92 NSCLC = system: HOP-92 NSCLC
SK-MEL-28 melanoma = system: SK-MEL-28 melanoma
SF-295 CNS = system: SF-295 CNS
TK-10 renal = system: TK-10 renal
HCT-116 colon = system: HCT-116 colon
HOP-62 NSCLC = system: HOP-62 NSCLC
HL-60(TB) leukemia = system: HL-60(TB) leukemia
RXF 393 renal = system: RXF 393 renal
NCI-H522 lung = system: NCI-H522 lung
CAKI-1 renal = system: CAKI-1 renal
SK-MEL-5 melanoma = system: SK-MEL-5 melanoma
MCF7 breast = system: MCF7 breast
OVCAR-5 ovarian = system: OVCAR-5 ovarian
A498 renal = system: A498 renal
786-0 renal = system: 786-0 renal
SNB-19 CNS = system: SNB-19 CNS
SNB-75 CNS = system: SNB-75 CNS
ACHN renal = system: ACHN renal
EKVX NSCLC = system: EKVX NSCLC
SR leukemia = system: SR leukemia

NS(=O)(=O)c1ccc(-c2ccc3c(NC(=O)C4CC4)n[nH]c3c2)cc1
inactive: GI50 (KM12 colon) > 25 µM | GI50 (UO-31 renal) > 25 µM | GI50 (U251 CNS) > 25 µM | GI50 (LOX IMVI melanoma) > 25 µM | GI50 (NCI-H226 lung) > 25 µM | GI50 (MDA-MB-435) > 25 µM | GI50 (M14 melanoma) > 25 µM | GI50 (OVCAR-4 ovarian) > 25 µM | GI50 (NCI-H23 lung) > 25 µM | GI50 (HCT-15 colon) > 25 µM | GI50 (SW-620 colon) > 25 µM | GI50 (IGROV1 ovarian) > 25 µM | GI50 (SK-OV-3 ovarian) > 25 µM | GI50 (UACC-257 melanoma) > 25 µM | GI50 (UACC-62 melanoma) > 25 µM | GI50 (RPMI-8226 leukemia) > 25 µM | GI50 (A549 NSCLC) > 25 µM | GI50 (PC-3 prostate) > 25 µM | GI50 (K-562 leukemia) > 25 µM | GI50 (NCI-H460 lung) > 25 µM | GI50 (NCI/ADR-RES ovarian) > 25 µM | GI50 (COLO 205 colon) > 25 µM | GI50 (SK-MEL-2 melanoma) > 25 µM | GI50 (HCC-2998 colon) > 25 µM | GI50 (OVCAR-8 ovarian) > 25 µM | GI50 (HS 578T breast) > 25 µM | GI50 (CCRF-CEM leukemia) > 25 µM | GI50 (HT29 colon) > 25 µM | GI50 (BT-549 breast) > 25 µM | GI50 (MDA-MB-231 breast) > 25 µM | GI50 (MOLT-4 leukemia) > 25 µM | GI50 (OVCAR-3 ovarian) > 25 µM | GI50 (SF-268 CNS) > 25 µM | GI50 (SN12C renal) > 25 µM | GI50 (DU-145 prostate) > 25 µM | GI50 (T-47D breast) > 25 µM | GI50 (MALME-3M melanoma) > 25 µM | GI50 (SF-539 CNS) > 25 µM | GI50 (HOP-92 NSCLC) 16.6 µM | GI50 (SK-MEL-28 melanoma) > 25 µM | GI50 (SF-295 CNS) > 25 µM | GI50 (TK-10 renal) > 25 µM | GI50 (HCT-116 colon) > 25 µM | GI50 (HOP-62 NSCLC) > 25 µM | GI50 (HL-60(TB) leukemia) > 25 µM | GI50 (RXF 393 renal) > 25 µM | GI50 (NCI-H522 lung) > 25 µM | GI50 (CAKI-1 renal) > 25 µM | GI50 (SK-MEL-5 melanoma) > 25 µM | GI50 (MCF7 breast) > 25 µM | GI50 (OVCAR-5 ovarian) > 25 µM | GI50 (A498 renal) > 25 µM | GI50 (786-0 renal) > 25 µM | GI50 (SNB-19 CNS) > 25 µM | GI50 (SNB-75 CNS) > 25 µM | GI50 (ACHN renal) > 25 µM | GI50 (EKVX NSCLC) > 25 µM | GI50 (SR leukemia) > 25 µM
> 25 µM: TGI (KM12 colon) | TGI (UO-31 renal) | TGI (U251 CNS) | TGI (LOX IMVI melanoma) | TGI (NCI-H226 lung) | TGI (MDA-MB-435) | TGI (M14 melanoma) | TGI (OVCAR-4 ovarian) | TGI (NCI-H23 lung) | TGI (HCT-15 colon) | TGI (SW-620 colon) | TGI (IGROV1 ovarian) | TGI (SK-OV-3 ovarian) | TGI (UACC-257 melanoma) | TGI (UACC-62 melanoma) | TGI (RPMI-8226 leukemia) | TGI (A549 NSCLC) | TGI (PC-3 prostate) | TGI (K-562 leukemia) | TGI (NCI-H460 lung) | TGI (NCI/ADR-RES ovarian) | TGI (COLO 205 colon) | TGI (SK-MEL-2 melanoma) | TGI (HCC-2998 colon) | TGI (OVCAR-8 ovarian) | TGI (HS 578T breast) | TGI (CCRF-CEM leukemia) | TGI (HT29 colon) | TGI (BT-549 breast) | TGI (MDA-MB-231 breast) | TGI (MOLT-4 leukemia) | TGI (OVCAR-3 ovarian) | TGI (SF-268 CNS) | TGI (SN12C renal) | TGI (DU-145 prostate) | TGI (T-47D breast) | TGI (MALME-3M melanoma) | TGI (SF-539 CNS) | TGI (HOP-92 NSCLC) | TGI (SK-MEL-28 melanoma) | TGI (SF-295 CNS) | TGI (TK-10 renal) | TGI (HCT-116 colon) | TGI (HOP-62 NSCLC) | TGI (HL-60(TB) leukemia) | TGI (RXF 393 renal) | TGI (NCI-H522 lung) | TGI (CAKI-1 renal) | TGI (SK-MEL-5 melanoma) | TGI (MCF7 breast) | TGI (OVCAR-5 ovarian) | TGI (A498 renal) | TGI (786-0 renal) | TGI (SNB-19 CNS) | TGI (SNB-75 CNS) | TGI (ACHN renal) | TGI (EKVX NSCLC) | TGI (SR leukemia)
